Details: 283.15 K, Liquid, Vibrating tube method

FC(C(F)(F)F)C(F)(F)F [1,1,1,2,3,3,3-heptafluoropropane]
Details	mass density [kg/m3]
10458 kPa	1500.1
10488 kPa	1500.2
10528 kPa	1500.3
10559 kPa	1500.4
10588 kPa	1500.6
10774 kPa	1501.4
10816 kPa	1501.5
10838 kPa	1501.7
10868 kPa	1501.8
10899 kPa	1502
10925 kPa	1502.1
10959 kPa	1502.2
10981 kPa	1502.4
11024 kPa	1502.5
11055 kPa	1502.6
12114 kPa	1507
12149 kPa	1507.1
12177 kPa	1507.2
12214 kPa	1507.4
12245 kPa	1507.6
12281 kPa	1507.6
12311 kPa	1507.7
12342 kPa	1507.9
12373 kPa	1508
12405 kPa	1508.2
12437 kPa	1508.3
12476 kPa	1508.3
12508 kPa	1508.5
12544 kPa	1508.6
12576 kPa	1508.7
12608 kPa	1509
12641 kPa	1509.1
12677 kPa	1509.2
12709 kPa	1509.4
12748 kPa	1509.5
12780 kPa	1509.7
13258 kPa	1511.5
13353 kPa	1512
14612 kPa	1516.6
14643 kPa	1516.8
14673 kPa	1516.9
14713 kPa	1517.2
14739 kPa	1517.4
14769 kPa	1517.4
14799 kPa	1517.6
14834 kPa	1517.7
14886 kPa	1517.8
14927 kPa	1517.9
14957 kPa	1518.1
14998 kPa	1518.3
15045 kPa	1518.4
15086 kPa	1518.5
15117 kPa	1518.8
15153 kPa	1518.8
15184 kPa	1518.9
15215 kPa	1519.2
15256 kPa	1519.2
15287 kPa	1519.4
15328 kPa	1519.4
15365 kPa	1519.5
15400 kPa	1519.8
15442 kPa	1519.9
15474 kPa	1520
15505 kPa	1520
15536 kPa	1520.4
15572 kPa	1520.5
15607 kPa	1520.5
15643 kPa	1520.7
15673 kPa	1520.8
15714 kPa	1521
16087 kPa	1522.4
16114 kPa	1522.4
16151 kPa	1522.5
16175 kPa	1522.7
16606 kPa	1524.3
16678 kPa	1524.6
16711 kPa	1524.5
17447 kPa	1527.3
17481 kPa	1527.3
17515 kPa	1527.4
17545 kPa	1527.7
17593 kPa	1527.7
18341 kPa	1530.5
18418 kPa	1530.6
18457 kPa	1530.8
18487 kPa	1530.8
18526 kPa	1531.1
18571 kPa	1531.1
19435 kPa	1534.2
19479 kPa	1534.3
19508 kPa	1534.3
19536 kPa	1534.5
19574 kPa	1534.6
19602 kPa	1534.7
19640 kPa	1534.9
19673 kPa	1535
19706 kPa	1535.1
19739 kPa	1535.3
19785 kPa	1535.4
19809 kPa	1535.4
19854 kPa	1535.6
19878 kPa	1535.6
19911 kPa	1535.8
19949 kPa	1535.8
19977 kPa	1536.1
20004 kPa	1536
20033 kPa	1536.1
20218 kPa	1536.8
20257 kPa	1536.9
20300 kPa	1537.1
20333 kPa	1537.1
20396 kPa	1537.4
20492 kPa	1537.8
20536 kPa	1538
20566 kPa	1538
20605 kPa	1538.1
20635 kPa	1538.2
20671 kPa	1538.4
20709 kPa	1538.4
20746 kPa	1538.6
20776 kPa	1538.6
20810 kPa	1538.7
20840 kPa	1538.9
20879 kPa	1539.1
20918 kPa	1539.3
20961 kPa	1539.3
20991 kPa	1539.4
21029 kPa	1539.6
21058 kPa	1539.4
21099 kPa	1539.7
21129 kPa	1539.8
21172 kPa	1539.9
21208 kPa	1540.1
21242 kPa	1540.3
21281 kPa	1540.4
21310 kPa	1540.4
21350 kPa	1540.7
21418 kPa	1540.9
21453 kPa	1540.9
21503 kPa	1541.2
21541 kPa	1541.2
21571 kPa	1541.3
21610 kPa	1541.4
21645 kPa	1541.5
21684 kPa	1541.6
21709 kPa	1541.6
21753 kPa	1541.9
21784 kPa	1542
21834 kPa	1542.2
21870 kPa	1542.3
21901 kPa	1542.3
21936 kPa	1542.5
21972 kPa	1542.7
22011 kPa	1542.7
22041 kPa	1542.8
22080 kPa	1543.1
22115 kPa	1543.2
22145 kPa	1543.2
22190 kPa	1543.1
22231 kPa	1543.5
22261 kPa	1543.6
22302 kPa	1543.7
22349 kPa	1543.9
22379 kPa	1543.9
22424 kPa	1544
22459 kPa	1544.1
22539 kPa	1544.5
22579 kPa	1544.6
22710 kPa	1545.1
22747 kPa	1545.1
22782 kPa	1545.2
22829 kPa	1545.3
22864 kPa	1545.6
22974 kPa	1545.8
23050 kPa	1545.9
23131 kPa	1546.2
23178 kPa	1546.5
23230 kPa	1546.7
23275 kPa	1546.8
23311 kPa	1546.9
23342 kPa	1546.9
23378 kPa	1547.1
23418 kPa	1547.2
23678 kPa	1548
23750 kPa	1548.3
23792 kPa	1548.5
24059 kPa	1549.2
24099 kPa	1549.4
24146 kPa	1549.5
24192 kPa	1549.5
24228 kPa	1549.8
24269 kPa	1549.9
24309 kPa	1550.1
24608 kPa	1550.8
24649 kPa	1551
24695 kPa	1551.2
24731 kPa	1551.2
24761 kPa	1551.4
24807 kPa	1551.5
24838 kPa	1551.8
24869 kPa	1551.8
24920 kPa	1551.9
24950 kPa	1552
24990 kPa	1552.1
25031 kPa	1552.2
